Measured values published in patent US12514865B2, “Biomaterial-based antigen free vaccine and the use thereof” (President and Fellows of Harvard College, priority 2019, dated 2026).

Key:
4T1 cells = experiment: In vitro immunogenic cell death assay; assay type: cell-based; settings: 24 h
Method: 4T1 cells were incubated with different concentrations of Dox at 37° C. for 24 h. Cells without drug treatment were used as controls. Cells were washed with PBS for three times, collected, and stained with FITC-conjugated anti-CD47, Alex Fluor 647-conjugated anti-calreticulin, and fixable viability dye efluor780 for 20 min prior to FACS analyses.

[1] = Release of Dox-iRGD or Dox from pore-forming alginate gels; assay type: physicochemical; settings: in vitro, DMEM 37 °C
4T1 tumors = experiment: Tumor penetration study of Dox-iRGD; assay type: in vivo, Balb/c mice; settings: released from peritumorally injected gels with GM-CSF, confocal imaging
Method: 4T1 cells (0.6 million) in HBSS buffer were subcutaneously injected into the right flank of Balb/c mice. After 5 days, pore-forming alginate gels loaded with GM-CSF (3 μg)+Dox-iRGD (50 μg in Dox-equivalent) or GM-CSF+Dox-iRDG or GM-CSF+Dox were injected next to the tumors. After 48 h, gels and tumors were harvested and frozen with O.C.T. compound, and sectioned with a thickness of 8 μm. To determine the tumor penetration of drugs, tissue sections were stained with DAPI for 10 min and imaged under a confocal microscope.

[2] = In vitro encapsulation and release of biomolecules from the cryogel vaccine; assay type: physicochemical
Method: To determine the incorporation efficiency and release kinetics of Cpg-odn, GM-CSF and antigen from cryogel vaccines, gels were incubated in lml of sterile PBS at 37° C. with shaking. Media was replaced periodically. Micro-BCA (Pierce Biotechnology) was used to quantify total protein content. GM-CSF and Cpg-odn released in the supernatant were detected by ELISA (Invitrogen) and OliGreen assay (Invitrogen), respectively. The amount of antigen was determined by subtracting total protein content from the amount of GM-CSF quantified by ELISA.

| Compound | expression of CD47 (4T1 cells) | cell-surface calreticulin (4T1 cells; 0-100 nM) | released from pore-forming alginate gel within 6 h [1] [%] | released from pore-forming alginate gel within 24 h [1] | tumor penetration / accumulation in tumor tissues (4T1 tumors) | released over the first 5 days in vitro ([2]; from cryogel) [%] | encapsulation efficiency ([2]; in MA-PEG/MA-alginate vaccine cryogel) [%] | burst release of the loaded amount ([2]; in vitro, from cryogel) |
| --- | --- | --- | --- | --- | --- | --- | --- | --- |
| COc1cccc2c1C(=O)c1c(O)c3c(c(O)c1C2=O)C[C@@](O)(C(=O)CO)C[C@@H]3O[C@H]1C[C@H](N)[C@H](O)[C@H](C)O1 [Dox, doxorubicin] | increased expression of the anti-phagocytic marker CD47 | upregulated cell-surface calreticulin | ~30 | more than 60% | negligible accumulation |  |  |  |
| GM-CSF: cytokine granulocyte-macrophage colony-stimulating factor (PeproTech) |  |  |  |  |  | 85 | 87 | about 8% |
